From ChEMBL document CHEMBL1641483, “Biological study of a somatostatin mimetic based on the 1-deoxynojrimycin scaffold” (Bioorg Med Chem Lett, 2011)
The source made the active and inactive calls. The calls are words filed in the database; no cut-off is given here.

Legend:
[1] = biological target: Somatostatin receptor type 4 (Homo sapiens, UniProt P31391); assay: Binding affinity to human SSTR4
[2] = test system: HUVEC; assay: Antiangiogenic activity in HUVEC assessed as partial inhibition of tube formation at 20 uM; format: functional, cell-based; conditions: Homo sapiens
[3] = biological target: Somatostatin receptor type 5 (Homo sapiens, UniProt P35346); assay: Binding affinity to human SSTR5
Sequence of Somatostatin receptor type 5 (P35346 whole entry): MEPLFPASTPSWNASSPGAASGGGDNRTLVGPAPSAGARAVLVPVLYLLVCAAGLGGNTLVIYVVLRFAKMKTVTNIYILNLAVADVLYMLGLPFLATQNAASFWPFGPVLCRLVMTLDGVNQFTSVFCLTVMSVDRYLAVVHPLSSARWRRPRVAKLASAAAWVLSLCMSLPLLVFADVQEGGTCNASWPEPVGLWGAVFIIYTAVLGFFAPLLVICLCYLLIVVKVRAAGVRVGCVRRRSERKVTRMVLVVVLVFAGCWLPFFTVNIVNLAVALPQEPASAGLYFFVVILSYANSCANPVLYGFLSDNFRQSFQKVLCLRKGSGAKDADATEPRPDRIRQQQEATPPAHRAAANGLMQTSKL

[4] = test system: HUVEC; assay: Cytotoxicity against HUVEC after 72 hrs by MTT assay; format: cell-based; conditions: Homo sapiens
[5] = test system: HUVEC; assay: Antiangiogenic activity in HUVEC assessed as complete inhibition of tube formation at 40 uM; format: functional, cell-based; conditions: Homo sapiens
[6] = biological target: Tubulin (Homo sapiens) (UniProt P68371+Q9H4B7+P0DPH7+P68366+Q13509+Q71U36+P04350+Q3ZCM7+P07437+P68363+Q9BQE3+Q6PEY2+Q13885+Q9BVA1+Q9BUF5); assay: Inhibition of tubulin polymerization in HUVEC at 20 uM by fluorescence staining; format: cell-based
[7] = test system: HUVEC; assay: Inhibition of HUVEC migration at 20 uM by scratch-wound healing assay; format: functional, cell-based; conditions: Homo sapiens
[8] = test system: HUVEC; assay: Induction of apoptosis in HUVEC assessed as change in mitochondrial membrane potential at 10 to 20 uM after 48 hrs by JC1 staining; format: functional, cell-based; conditions: Homo sapiens
[9] = test system: HUVEC; assay: Induction of cell cycle arrest in HUVEC assessed as accumulation at G1 phase at 20 uM after 24 hrs by flow cytometry; format: functional, Homo sapiens
[10] = test system: HUVEC; assay: Induction of cell cycle arrest in HUVEC assessed as accumulation at S phase at 20 uM after 24 hrs by flow cytometry; format: functional, Homo sapiens
[11] = test system: HUVEC; assay: Induction of cell cycle arrest in HUVEC assessed as accumulation at G2/M phase at 20 uM after 24 hrs by flow cytometry; format: functional, Homo sapiens
[12] = test system: HUVEC; assay: Induction of apoptosis in HUVEC at 10 to 20 uM after 48 hrs by fluorescence assay; format: functional, cell-based; conditions: Homo sapiens

Sequence of Somatostatin receptor type 4 (P31391 whole entry): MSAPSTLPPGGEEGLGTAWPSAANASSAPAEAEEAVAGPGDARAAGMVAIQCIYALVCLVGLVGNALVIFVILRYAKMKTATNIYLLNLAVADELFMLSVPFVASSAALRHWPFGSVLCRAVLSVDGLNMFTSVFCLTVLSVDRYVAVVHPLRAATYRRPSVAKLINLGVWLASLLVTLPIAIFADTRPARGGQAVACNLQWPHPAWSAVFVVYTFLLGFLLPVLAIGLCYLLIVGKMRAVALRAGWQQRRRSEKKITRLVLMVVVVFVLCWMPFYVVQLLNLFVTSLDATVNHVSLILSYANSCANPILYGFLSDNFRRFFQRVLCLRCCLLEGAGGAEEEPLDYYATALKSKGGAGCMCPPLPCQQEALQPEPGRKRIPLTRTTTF

Ki [1]: 4.4 µM | Ki [3]: 5 µM | inhibition [6]: Active
SMILES: NCCCCCOC[C@@H]1[C@@H](OCc2ccccc2)[C@H](OCc2ccccc2)[C@@H](OCc2ccccc2)CN1CCc1c[nH]c2ccccc12
inhibition [2]: Active | IC50 [4]: 12.6 µM | inhibition [5]: Active | inhibition [7]: Active | Activity [8]: Active | Activity [9]: 70.39% | Activity [10]: 13.81% | Activity [11]: 16.27% | Activity [12]: Active
